Measured values taken from US7514443B2, “Substituted pyrazolo[1,5-a]pyrimidines as inhibitors of metabotropic glutamate receptors” (Hoffmann-La Roche Inc., priority 2003, dated 2009).

| melting point | SMILES |
| --- | --- |
| 204 °C | N#Cc1cnn2c(C(F)(F)F)cc(-c3cccc(Cl)c3)nc12 [Example 1.1, 5-(3-Chloro-phenyl)-7-trifluoromethyl-pyrazolo[1,5-a]pyrimidine-3-carbonitrile] |
| 121 °C | Cc1ccc(-c2cc(C(F)(F)F)n3ncc(C#N)c3n2)cc1 [Example 1.2, 5-(4-Methyl-phenyl)-7-trifluoromethyl-pyrazolo[1,5-a]pyrimidine-3-carbonitrile] |
| 169 °C | N#Cc1cnn2c(C(F)(F)F)cc(-c3ccccc3Cl)nc12 [Example 1.3, 5-(2-Chloro-phenyl)-7-trifluoromethyl-pyrazolo[1,5-a]pyrimidine-3-carbonitrile] |
| 180 °C | N#Cc1cnn2c(C(F)(F)F)cc(-c3ccc(Cl)cc3Cl)nc12 [Example 1.4, 5-(2,4-Dichloro-phenyl)-7-trifluoromethyl-pyrazolo[1,5-a]pyrimidine-3-carbonitrile] |
| 202 °C | Cc1cccc(-c2cc(C(F)(F)F)n3ncc(C#N)c3n2)c1 [Example 1.5, 5-(3-Methyl-phenyl)-7-trifluoromethyl-pyrazolo[1,5-a]pyrimidine-3-carbonitrile] |
| 192 °C | N#Cc1cnn2c(C(F)(F)F)cc(-c3cccc(C(F)(F)F)c3)nc12 [Example 1.6, 5-(3-Trifluoromethyl-phenyl)-7-trifluoromethyl-pyrazolo[1,5-a]pyrimidine-3-carbonitrile] |
| 176 °C | N#Cc1cnn2c(C(F)(F)F)cc(-c3ccc(C(F)(F)F)cc3)nc12 [Example 1.7, 5-(4-Trifluoromethyl-phenyl)-7-trifluoromethyl-pyrazolo[1,5-a]pyrimidine-3-carbonitrile] |
| 199 °C | N#Cc1cnn2c(C(F)(F)F)cc(-c3cccc(F)c3)nc12 [Example 1.8, 5-(3-Fluoro-phenyl)-7-trifluoromethyl-pyrazolo[1,5-a]pyrimidine-3-carbonitrile] |
| 198 °C | N#Cc1cnn2c(C(F)(F)F)cc(-c3ccc(F)cc3)nc12 [Example 1.9, 5-(4-Fluoro-phenyl)-7-trifluoromethyl-pyrazolo[1,5-a]pyrimidine-3-carbonitrile] |
| 149 °C | N#Cc1cnn2c(C(F)(F)F)cc(-c3ccc(F)cc3F)nc12 [Example 1.10, 5-(2,4-Difluoro-phenyl)-7-trifluoromethyl-pyrazolo[1,5-a]pyrimidine-3-carbonitrile] |
| 165 °C | N#Cc1cnn2c(C(F)(F)F)cc(-c3ccccc3F)nc12 [Example 1.11, 5-(2-Fluoro-phenyl)-7-trifluoromethyl-pyrazolo[1,5-a]pyrimidine-3-carbonitrile] |
| 190 °C | N#Cc1cnn2c(C(F)(F)F)cc(-c3ccc(F)c(Cl)c3)nc12 [Example 1.14, 5-(3-Chloro-4-fluoro-phenyl)-7-trifluoromethyl-pyrazolo[1,5-a]pyrimidine-3-carbonitrile] |
| 216 °C | Cc1cc(-c2cc(C(F)(F)F)n3ncc(C#N)c3n2)ccc1Cl [Example 1.15, 5-(4-Chloro-3-methyl-phenyl)-7-trifluoromethyl-pyrazolo[1,5-a]pyrimidine-3-carbonitrile] |
| 206 °C | N#Cc1cnn2c(C(F)(F)F)cc(-c3ccc(Cl)c(Cl)c3)nc12 [Example 1.16, 5-(3,4-Dichloro-phenyl)-7-trifluoromethyl-pyrazolo[1,5-a]pyrimidine-3-carbonitrile] |
| 184 °C | N#Cc1cnn2c(C(F)(F)F)cc(-c3ccc(C(F)(F)F)c(F)c3)nc12 [Example 1.17, 5-(3-Fluoro-4-trifluoromethyl-phenyl)-7-trifluoromethyl-pyrazolo[1,5-a]pyrimidine-3-carbonitrile] |
| 208 °C | N#Cc1cnn2c(C(F)(F)F)cc(-c3ccccn3)nc12 [Example 1.20, 5-Pyridin-2-yl-7-trifluoromethyl-pyrazolo[1,5-a]pyrimidine-3-carbonitrile] |
